For this assay, the target named is T1, ACAT (Rattus norvegicus, UniProt Q7TQM4).
T1 construct: Liver microsomes as an enzyme sample of ACAT were prepared from overnight-fasted male rats; from tissue; host or cells: liver of overnight-fasted male rats, 6 weeks old; microsomes
T1 sequence (Q7TQM4 1-524): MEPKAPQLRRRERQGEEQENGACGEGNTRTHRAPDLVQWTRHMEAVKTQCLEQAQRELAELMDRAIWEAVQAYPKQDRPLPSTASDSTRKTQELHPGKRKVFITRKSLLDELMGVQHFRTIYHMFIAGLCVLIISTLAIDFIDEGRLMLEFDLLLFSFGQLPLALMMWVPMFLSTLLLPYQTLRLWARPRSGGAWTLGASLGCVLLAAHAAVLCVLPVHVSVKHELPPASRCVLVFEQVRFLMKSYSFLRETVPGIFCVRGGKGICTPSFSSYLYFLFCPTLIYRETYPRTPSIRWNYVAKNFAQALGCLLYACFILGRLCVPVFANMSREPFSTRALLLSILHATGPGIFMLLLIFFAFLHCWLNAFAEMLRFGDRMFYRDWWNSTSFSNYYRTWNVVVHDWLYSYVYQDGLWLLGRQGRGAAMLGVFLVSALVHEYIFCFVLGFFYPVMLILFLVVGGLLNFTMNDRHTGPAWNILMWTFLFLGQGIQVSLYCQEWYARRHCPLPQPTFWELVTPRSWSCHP
The assay can be described thus: Inhibitory effect on microsomal ACAT activity in rat liver. The class given is biochemical. Conditions: rat liver microsomes; read-out: IC50 (50% inhibition of cholesterol esterification).
As usually defined, the IC50 is the concentration that gives 50% inhibition. `CCCN(CC(=O)Nc1c(S)nc(C)nc1N(CC)CC)c1ccccc1` [Example 133, N-[4-(N,N-diethylamino)-6-mercapto-2-methylpyrimidin-5-yl]-2-(N-phenyl-N-propylamino)acetamide]: the IC50 amounted to 260 nM.

In the case of `CCCN(CCCC(=O)Nc1c(S)nc(C)nc1N(CC)CC)c1ccccc1` [Example 145, N-[4-(N,N-diethylamino)-6-mercapto-2-methylpyrimidin-5-yl]-4-(N-phenyl-N-propylamino)butanamide], the IC50 is 80 nM. The value for `CCCCN(CCCC)c1nc(C)nc(S)c1NC(=O)CCCN(CCC)c1ccccc1` [Example 146, N-[4-(N,N-dibutylamino)-6-mercapto2-methylpyrimidin-5-yl]-4-(N-phenyl-N-propylamino)butanamide] was 110 nM; that for `CCCCCCN(CCCC(=O)Nc1c(S)nc(C)nc1N(CCC)CCC)c1ccccc1` [Example 156, N-[4-(N,N-dipropylamino)-6-mercapto-2-methylpyrimidin-5-yl]-4-(N-hexyl-N-phenylamino)butanamide] was 38 nM. Consider `CCCCCCN(CCCC(=O)Nc1c(OC)nc(C)nc1N(CC)CC)c1ccccc1` [Example 166, N-[4-(N,N-diethylamino)-6-methoxy-2-methylpyrimidin-5-yl]-4-(N-hexyl-N-phenylamino)butanamide], for which the IC50 worked out at 81 nM. The value for `CCCCCCN(CCCC(=O)Nc1c(OC)nc(C)nc1N(CCC)CCC)c1ccccc1` [Example 167, N-[4-(N,N-dipropylamino)-6-methoxy-2-methylpyrimidin-5-yl]-4-(N-hexyl-N-phenylamino)butanamide] was 43 nM; that for `CCCCCCN(CCCC(=O)Nc1c(OC)nc(SC)nc1N(CC)CC)c1ccccc1` [Example 168, N-[4-(N,N-diethylamino)-6-methoxy-2-methylthiopyrimidin-5-yl]-4-(N-hexyl-N-phenylamino)butanamide] was 87 nM. Next, `CCCN(CCCC(=O)Nc1c(S)nc(C)nc1N(CC)CC)c1ccc(OC)cc1` [Example 173, N-[4-(N,N-diethylamino)-6-mercapto-2-methylpyrimidin-5-yl]-4-[N-(4-methoxyphenyl)-N-propylamino]butanamide]: 170 nM. Next, `CCCN(CCCC(=O)Nc1c(S)nc(C)nc1N(CC)CC)c1ccc(F)cc1F` [Example 180, N-[4-(N,N-diethylamino)-6-mercapto-2-methylpyrimidin-5-yl]-4-[N-(2,4-difluorophenyl)-N-propylamino]butanamide]: 200 nM. For the molecule `CCCCCCCN(CCCC(=O)Nc1c(S)nc(C)nc1N(CC)CC)Cc1ccccc1` [Example 182, 4-(N-benzyl-N-heptylamino)-N-[4-(N,N-diethylamino)-6-mercapto-2-methylpyrimidin-5-yl]butanamide], the IC50 came out at 220 nM. As to `CCN(CC)c1nc(C)nc(S)c1NC(=O)CCCN1CCCc2ccccc21` [Example 183, N-[4-(N,N-diethylamino)-6-mercapto-2-methylpyrimidin-5-yl]-4-(tetrahydroquinolino)butanamide], the half-inhibitory concentration (IC50) was found to be 280 nM. Next, `CCCN(CCCCC(=O)Nc1c(S)nc(C)nc1N(CCC)c1ccccc1)c1ccccc1` [Example 185, N-[4-mercapto-2-methyl-6-(N-phenyl-N-propylamino)pyrimidin-5-yl]-5-(N-phenyl-N-propylamino)pentanamide]: 79 nM; `CCCN(CCCCC(=O)Nc1c(S)nc(C)nc1N(CC)CC)c1ccccc1` [Example 187, N-[4-(N,N-diethylamino)-6-mercapto-2-methylpyrimidin-5-yl]-5-(N-phenyl-N-propylamino)pentanamide]: 47 nM; `CCCN(CCCCC(=O)Nc1c(S)nc(C)nc1N(CCC)CCC)c1ccccc1` [Example 188, N-[4-(N,N-dipropylamino)-6-mercapto-2-methylpyrimidin-5-yl]-5-(N-phenyl-N-propylamino)pentanamide]: 35 nM. For `CCCCN(CCCC)c1nc(C)nc(OC)c1NC(=O)CCCCN(CCC)c1ccccc1` [Example 195, N-[4-(N,N-dibutylamino)-6-methoxy-2-methylpyrimidin-5-yl]-5-(N-phenyl-N-propylamino)pentanamide], the IC50 stood at 47 nM. Consider `CCCCN(CCCC)c1ncnc(OCC)c1NC(=O)CCCCN(CCC)c1ccccc1` [Example 197, N-[4-(N,N-dibutylamino)-6-ethoxypyrimidin-5-yl]-5-(N-phenyl-N-propylamino)pentanamide], for which the IC50 is 8.8 nM. Turning to `CCCN(CCCCCC(=O)Nc1c(S)nc(C)nc1N(CCC)c1ccccc1)c1ccccc1` [Example 205, N-[4-mercapto-2-methyl-6-(N-phenyl-N-propylamino)pyrimidin-5-yl]-6-(N-phenyl-N-propylamino)hexanamide], the IC50 is 280 nM. As to `CCCN(CC(=O)Nc1c(SC)nc(C)nc1N(CC)CC)Cc1ccccc1` [Example 210, 2-(N-benzyl-N-propylamino) N-[4-(N,N-diethylamino)-2-methyl-6-methylthiopyrimidin-5-yl]acetamide], the IC50 is 470 nM. For `CCCN(CCCC(=O)Nc1c(SC)nc(C)nc1N(CCC)c1ccccc1)c1ccccc1` [Example 218, N-[2-methyl-4-methylthio-6-(N-phenyl-N-propylamino)pyrimidin-5-yl]-4-(N-phenyl-N-propylamino)butanamide], the IC50 was found to be 430 nM. Next, `CCN(CC)c1nc(C)nc(SC)c1NC(=O)CCCN(C)c1ccccc1` [Example 224, N-[4-(N,N-diethylamino)-2-methyl-6-methylthiopyrimidin-5-yl]-4-(N-methyl-N-phenylamino)butanamide]: 220 nM; `CCCCCCN(CCCC(=O)Nc1c(SC)nc(C)nc1N(CCC)CCC)c1ccccc1` [Example 226, N-[4-(N,N-dipropylamino)-2-methyl-6-methylthiopyrimidin-5-yl]-4-(N-hexyl-N-phenylamino)butanamide]: 16 nM. Next, `CCCCCCN(CCCC(=O)Nc1c(SC)nc(C)nc1N(CCCC)CCCC)c1ccccc1` [Example 227, N-[4-(N,N-dibutylamino)-2-methyl-6-methylthiopyrimidin-5-yl]-4-(N-hexyl-N-phenylamino)butanamide]: 110 nM. Turning to `CCCCCCN(CCCC(=O)Nc1c(SC)nc(SC)nc1N(CC)CC)c1ccccc1` [Example 234, N-[4-(N,N-diethylamino)-2,6-bis(methylthio)pyrimidin-5-yl]-4-(N-hexyl-N-phenylamino)butanamide], the half-maximal inhibitory concentration (IC50) came out at 25 nM. Take `CCN(CC)c1nc(C)nc(SC)c1NC(=O)CCCN(c1ccccc1)C1CCCCCC1` [Example 235, 4-(N-cycloheptyl-N-phenylamino)-N-[4-(N,N-diethylamino)-2-methyl-6-methylthiopyrimidin-5-yl]butanamide]: the IC50 worked out at 26 nM. For the molecule `CCCCCCCCCCN(CCCC(=O)Nc1c(SC)nc(C)nc1N(CC)CC)c1ccccc1` [Example 236, 4-(N-decyl-N-phenylamino)-N-[4-(N,N-diethylamino)-2-methyl-6-methylthiopyrimidin-5-yl]butanamide], the IC50 turned out to be 32 nM. For the molecule `CCCCc1ccc(N(CCC)CCCC(=O)Nc2c(SC)nc(C)nc2N(CC)CC)cc1` [Example 237, 4-[N-(4-butylphenyl)-N-propylamino]-N-[4-(N,N-diethylamino)-2-methyl-6-methylthiopyrimidin-5-yl]butanamide], the IC50 was 83 nM.

On to `CCCCCCN(CCCC(=O)Nc1c(SC)nc(C)nc1N(CC)CC)c1ccc(OC)cc1` [Example 239, N-[4-(N,N-diethylamino)-2-methyl-6-methylthiopyrimidin-5-yl]-4-[N-hexyl-N-(4-methoxyphenyl)amino]butanamide], for which the IC50 is 120 nM. As for `CCCN(CCCC(=O)Nc1c(SC)nc(C)nc1N(CC)CC)c1ccc(F)cc1F` [Example 241, N-[4-(N,N-diethylamino)-2-methyl-6-methylthiopyrimidin-5-yl]-4-[N-(2,4-difluorophenyl)-N-propylamino]butanamide], the IC50 came to 76 nM. For `CCCN(CCCC(=O)Nc1c(SC)nc(C)nc1N(CC)CC)Cc1ccccc1` [Example 242, 4-(N-benzyl-N-propylamino)-N-[4-(N,N-diethylamino)-2-methyl-6-methylthiopyrimidin-5-yl]butanamide], the IC50 was 220 nM.

On to `CCCCCCCN(CCCC(=O)Nc1c(SC)nc(C)nc1N(CC)CC)Cc1ccccc1` [Example 243, 4-(N-benzyl-N-heptylamino)-N-[4-(N,N-diethylamino)-2-methyl-6-methylthiopyrimidin-5-yl]butanamide], for which the IC50 is 95 nM. Next, `CCN(CC)c1nc(C)nc(SC)c1NC(=O)CCCN1CCCc2ccccc21` [Example 244, N-[4-(N,N-diethylamino)-2-methyl-6-methylthiopyrimidin-5-yl]-4-(N-tetrahydroquinolino)butanamide]: 190 nM. With `CCCN(CCCCC(=O)Nc1c(SC)nc(C)nc1N(CC)CC)c1ccccc1` [Example 245, N-[4-(N,N-diethylamino)-2-methyl-6-methylthiopyrimidin-5-yl]-5-(N-phenyl-N-propylamino)pentanamide], the IC50 came out at 64 nM. Regarding `CCCN(CCCCC(=O)Nc1c(SC)nc(C)nc1N(CCC)CCC)c1ccccc1` [Example 246, N-[4-(N,N-dipropylamino)-2-methyl-6-methylthiopyrimidin-5-yl]-5-(N-phenyl-N-propylamino)pentanamide], the IC50 is 14 nM.

For the origin of these results see patent US5397781A, “Pyrimidine derivatives” (Mochida Pharmaceutical Company, Limited, priority 1992, dated 1995).
